# According to US4294841A, “Derivatives of 1-phenyl 3-(4-piperidyl) 1-propanone usable as drugs” (Pharmindustrie, priority 1978, dated 1981):
# Like-named read-outs stand apart in the source and are kept apart here.
# Experiments:
# [1] = acute toxicity in the mouse per os; design: species or system Charles River); details: in vivo, po, male CD1 mouse, 3 days of observation
# Text: The acute toxicities of the compounds of formula (I) have been determined on the male mouse CD1 (Charles River) per os. The LD50 have been calculated, after 3 days of observation, by the cumulative method of J. J. Reed and H. Muench (Amer. J. Hyg. 27, 493, (1938)).
# [2] = target: receptors for benzodiazepines in the brain membranes (3H-diazepam binding site); test: displacement of 3H-diazepam from its binding sites (method of H. Mohler et al.); design: species or system rat
# Text: The anxiolytic activity of the benzodiazepines is well known. The presence of specific receptors for benzodiazepines in the brain membranes of the rat has also been well established (Squires et al. Nature 266, 732, (1977)) and a good correlation exists between the degree of affinity of benzodiazepines for the receiving binding sites and the pharmacodynamic effects observed in the animal and in man.
# The results of Table II have been obtained by testing the products according to the method of H. Mohler et al., Life Sciences 20, 2101 (1977).
# [3] = tested on: uptake of serotonin (5-hydroxytryptamine, 5HT); test: inhibition test of the uptake of serotonin by synaptosomes of the rat brain (medulla + pons); format: biochemical; details: read-out: I50 5HT (medulla + pons)
# Description: (§1) The results are expressed by a 50% inhibitory dose (I50) which represents the dose of product, in micromoles per liter, diminishing by 50% the uptake of the neuromediator considered in the specific regions (hypothalamus, medulla+pons) where the corresponding neurons predominate.
# [4] = tested on: uptake of noradrenaline (NA); test: inhibition test of the uptake of noradrenaline by synaptosomes of the rat brain (hypothalamus); format: biochemical; details: read-out: I50 NA (hypothalamus)
# Description: as §1
# [5] = tested on: ventricular arhythmias caused by aconitine; test: antiarhythmic activity, aconitine test in rats; format: in vivo; details: Rattus norvegicus, iv, read-out: ED50 (i.v.)
# Description: The principle of the technique rests on the induction time of ventricular arhythmias caused by aconitine which is slowly perfused in rats. An antiarhythmic substance retards the occurrence of arhythmias and this delay is proportional to the activity of the molecule.
# Groups of five male rats are used. An individual anaesthesia is realized (10% urethane: 1 g/kg/ip) to allow a catheterization of the vein of the penis. The electrocardiogram is recorded. At time T=0 the substance investigated is injected in the form of an aqueous solution, at a rate of 2.5 ml of solution per kg in 30 seconds. At time T=90 seconds, that is 1 minute after the end of the injection, aconitine is perfused at a rate of 20 μg per minute until the appearance of supra-ventricular systoles. The time of perfusion of the aconitine is noted.
# The results are expressed by an ED50, which is the dose in mg/kg increasing by 50% the perfusion time of aconitine in comparison with the perfusion time of aconitine for the control animals.
# [6] = calculated from I50, read-out: Ki
structure (smiles),measurement,setting,value
"COc1ccc(C(=O)CCC2CCNCC2)cc1 [Example 19, 1-(4-methoxyphenyl) 3-(4-piperidyl) 1-propanone]",LD50 at 72 h,[1],200 mg/kg
same,Ki,[2]; [6],6500 nM
"Cc1ccc(CCCC2CCNCC2)cc1 [Example 10, 4-[3-(4-Methylphenyl)1-propyl]piperidine]",LD50 at 72 h,[1],400 mg/kg
same,IC50,[3],160 nM
same,Ki,[2]; [6],42000 nM
same,IC50,[4],300 nM
"Clc1ccc(CCCC2CCNCC2)cc1Cl [Example 9, 4-[3-(3,4-dichlorophenyl)1-propyl]piperidine]",LD50 at 72 h,[1],600 mg/kg
same,IC50,[3],180 nM
same,IC50,[4],1300 nM
"Nc1ccc(CCCC2CCNCC2)cc1 [Example 17, 4-[3-(4-Aminophenyl)propyl]piperidine]",Ki,[2]; [6],36000 nM
"C=C[C@H]1C[N@@]2CC[C@H]1C[C@@H]2[C@@H](O)c1ccnc2ccc(OC)cc12 [Quinidine, reference compound]",ED50,[5],4 mg/kg
"Fc1ccc(CCCC2CCNCC2)cc1 [Example 7, 4-[3-(4-Fluorophenyl)1-propyl]piperidine]",LD50 at 72 h,[1],225 mg/kg
same,IC50,[3],10 nM
same,Ki,[2]; [6],45000 nM
same,IC50,[4],3000 nM
"COc1ccc(C(O)CCC2CCNCC2)cc1 (stereo not shown) [Example 22, 1-(4-methoxyphenyl) 3-(4-piperidyl) 1-propanol]",LD50 at 72 h,[1],800 mg/kg
same,Ki,[2]; [6],32000 nM
"Oc1ccccc1CCCC1CCNCC1 [Example 20, 2-[3-(4-Piperidyl)propyl]phenol]",Ki,[2]; [6],29000 nM
same,ED50,[5],1.2 mg/kg
"COc1ccc(CCCC2CCNCC2)cc1 [Example 6, 4-[3-(4-Methoxyphenyl) 1-propyl]piperidine]",LD50 at 72 h,[1],400 mg/kg
same,IC50,[3],20 nM
same,Ki,[2]; [6],19500 nM
same,IC50,[4],2200 nM
"Clc1ccc(CCCC2CCNCC2)cc1 [Example 8, 4-[3-(4-Chlorophenyl)1-propyl]piperidine]",LD50 at 72 h,[1],235 mg/kg
same,IC50,[3],90 nM
same,Ki,[2]; [6],36000 nM
same,IC50,[4],900 nM
"CN(C)CCCN1c2ccccc2CCc2ccccc21 [Imipramine, reference compound]",IC50,[3],120 nM
same,Ki,[2]; calculated from I50,inactive
same,IC50,[4],500 nM
"c1ccc(CCCC2CCNCC2)cc1 [Example 16, 4-[3-(phenyl)propyl]piperidine]",LD50 at 72 h,[1],200 mg/kg
same,IC50,[3],2 nM
same,ED50,[5],2.5 mg/kg
same,IC50,[4],240 nM
